Data set [1] deals with T1, human orexin type 2 receptor (Homo sapiens, UniProt O43614).
T1 construct: expressed in transfected cells
T1 sequence (O43614 1-444): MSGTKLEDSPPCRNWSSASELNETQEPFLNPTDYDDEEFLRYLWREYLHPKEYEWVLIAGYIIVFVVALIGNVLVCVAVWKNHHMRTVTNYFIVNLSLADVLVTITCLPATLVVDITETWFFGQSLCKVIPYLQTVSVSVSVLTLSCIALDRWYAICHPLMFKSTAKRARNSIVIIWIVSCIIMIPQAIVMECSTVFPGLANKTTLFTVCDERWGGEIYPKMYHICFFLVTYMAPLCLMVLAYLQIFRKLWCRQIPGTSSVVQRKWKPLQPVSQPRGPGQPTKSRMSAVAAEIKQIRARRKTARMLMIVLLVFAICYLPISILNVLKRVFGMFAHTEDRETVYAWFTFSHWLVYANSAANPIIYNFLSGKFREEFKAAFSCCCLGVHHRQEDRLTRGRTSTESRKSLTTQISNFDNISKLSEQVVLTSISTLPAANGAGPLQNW
As to the kind of experiment: Measurement of orexin type 2 receptor agonist activity (calcium indicator fluorescence, CHO cells forcibly expressing human OX2 receptor). It counts as cell-based. Conditions: compound at 3 μM; 0% = DMSO, 100% = orexin A (human) 10 nM. The gist of the method: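 Agonist response normalised between vehicle (0%) and orexin A at 10 nM final (100%), from kinetic Fluo-4 calcium signals recorded for about 2 min after compound addition. Cells: stable human OX2R CHO clone, dye-loaded 30 min at 37 °C plus 30 min at room temperature.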

The subject of a further data set is cynomolgus monkeys. As to the kind of experiment: Evaluation of wake-promoting effects in cynomolgus monkeys (EEG/EMG). It is filed as in vivo, cynomolgus monkey. The conditions noted are these: Macaca fascicularis, po, time spent in wakefulness for 4 h after administration, read-out: Wakefulness time (% of vehicle treatment) (Mean); for response vs control in vivo at 3 mg/kg: 3 mg/kg p.o. at ZT12; for response vs control in vivo at 10 mg/kg: 10 mg/kg p.o. at ZT12. Here is the method:
The wake-promoting effects were evaluated by measuring the electroencephalogram (EEG) and electromyogram (EMG) in cynomolgus monkeys. Under isoflurane anesthesia (1-5%, Pfizer Japan Inc., Tokyo, Japan), male cynomolgus monkeys (3-5 years old, Hamri Co., Ltd., Ibaraki, Japan) were surgically implanted with radio-telemetry transmitters (TL10M3-D70-EEE, Data Sciences International Inc., MN, USA). EEG electrodes were screwed into the skull at the parietal area. EMG electrodes were implanted on the cervical muscles. After the surgery, each monkey was given penicillin (100,000 units/head, i.m., Meiji Seika Pharma Co., Ltd., Tokyo, Japan), buprenorphine (0.02 mg/kg, i.m., Otsuka Pharmaceutical Co., Ltd., Tokyo, Japan) and prednisolone (1 mg/kg, s.c., Kyoritsu Seiyaku Co., Ltd., Tokyo, Japan) daily for one week. After at least a 1-month recovery period in home cages, the monkeys were habituated to the recording chamber placed in a soundproof room. EEG and EMG signals were recorded using the telemetry system (Dataquest ART software, Data Sciences International Inc., MN, USA) and the signals were analyzed using SleepSign software (Kissei Comtec Co., Ltd., Nagano, Japan). After confirming long sleep in dark phase in the experimental room, we used animals to examine the wake-promoting effect of compounds.
Oral test compounds (3 or 10 mg/kg) suspended in 0.5% methylcellulose aqueous solution, or vehicle (i.e., 0.5% methylcellulose aqueous solution) was administered orally (p.o.) to monkeys at zeitgeber time 12 (ZT12) in a volume of 5 mL/kg body weight in cross-over design or pre-post design (n=1-4). EEG and EMG recordings were performed for 4 h after the compound administration. The time spent in wakefulness for 4 h after administration (% of vehicle treatment) was calculated by using SleepSign.
Parenteral test compounds (0.1 or 0.3 mg/kg) dissolved in a mixed solution comprising 5% DMSO, 5% Cremophor EL, 20% PEG400 and 70% soluplus (1% (w/v)), or vehicle (i.e., a mixed solution comprising 5% DMSO, 5% Cremophor EL, 20% PEG400 and 70% soluplus (1% (w/v))) was administered subcutaneously (s.c.) to monkeys at ZT12 in a volume of 0.5 mL/kg body weight in a pre-post design (n=1-2). EEG and EMG recordings were performed for 4 h after the compound administration. The time spent in wakefulness for 4 h after administration (% of vehicle treatment) was calculated by using SleepSign.

The nature of data set [2]: Evaluation of microsome stability in human. It is filed as in vitro ADME. The conditions noted are these: pH 7.4; in vitro intrinsic metabolic clearance; human liver microsomes 0.2 mg/mL, 1 μmol/L test compound, NADPH-generating system. As for the experimental part:
Human liver microsomes were purchased from Xenotech, LLC (Lenexa, Kans.). An incubation mixture consisted of microsomes in 50 mmol/L KH2PO4—K2HPO4 phosphate buffer (pH 7.4) and 1 μmol/L test compound. The concentration of microsomal protein was 0.2 mg/mL. An NADPH-generating system (5 mmol/L MgCl2, 5 mmol/L glucose-6-phosphate, 0.5 mmol/L beta-NADP+ and 1.5 unit/mL glucose-6-phosphate dehydrogenase) was added to the incubation mixture with a half volume of the reaction mixture to initiate the enzyme reaction. The reaction was terminated 15 and 30 minutes after the initiation of the reaction by mixing the reaction mixture with acetonitrile, followed by centrifugation at 2500 rpm for 10 min. The supernatant was subjected to LC/MS/MS analysis. The metabolic rate constant was calculated as the slope of the remaining rate-time plot. The in vitro intrinsic metabolic clearance was calculated by dividing initial metabolic rate constant by microsomal protein in the incubation mixture.
A general note: Microsomes from liver hold many membrane-bound enzymes, among them those of drug oxidation.

One may read the microsomal CLint as the rate of metabolic loss divided by the concentration. A higher microsomal CLint goes with rapid turnover. Regarding `CCS(=O)(=O)N[C@@H]1[C@H](Cc2cccc(-c3cc(F)ccc3F)c2F)N(C(=O)C(C)(C)O)CC1(F)F` [Example 67, N-{(2S,3R)-4,4-difluoro-1-(2-hydroxy-2-methylpropanoyl)-2-[(2,2′,5′-trifluoro[1,1′-biphenyl]-3-yl)methyl]pyrrolidin-3-yl}ethanesulfonamide], the “OX2R agonist activity (3 μM, %)” value in data set [1] came out at 111%. The response vs control in vivo at 3 mg/kg in the data set on cynomolgus monkeys is 356%. For the same compound, in data set [2], the microsomal CLint at 1 μmol/L was 4 µL/min/mg.

For the compound `CS(=O)(=O)N[C@@H]1[C@H](Cc2cccc(-c3cc(F)cc(F)c3)c2F)N(C(=O)C23CC(C2)C3)CC1(F)F` [Example 87, N-{(2S,3R)-1-(bicyclo[1.1.1]pentane-1-carbonyl)-4,4-difluoro-2-[(2,3′,5′-trifluoro[1,1′-biphenyl]-3-yl)methyl]pyrrolidin-3-yl}methanesulfonamide], the “OX2R agonist activity (3 μM, %)” value in data set [1] worked out at 93%. Further, the response vs control in vivo at 3 mg/kg with cynomolgus monkeys was found to be 832%. In data set [2], this compound registered a microsomal CLint at 1 μmol/L of 9 µL/min/mg.

As to `CS(=O)(=O)N[C@@H]1[C@H](Cc2cccc(-c3cc(F)cc(F)c3)c2F)N(C(=O)[C@H]2CCO2)CC1(F)F` [Example 91, N-{(2S,3R)-4,4-difluoro-1-((2R)-oxetane-2-carbonyl)-2-[(2,3′,5′-trifluoro[1,1′-biphenyl]-3-yl)methyl]pyrrolidin-3-yl}methanesulfonamide], the “OX2R agonist activity (3 μM, %)” value in data set [1] is recorded as 94%. In addition, in the data set on cynomolgus monkeys, the response vs control in vivo at 10 mg/kg was 548%. This compound had a microsomal CLint at 1 μmol/L in data set [2] of 65 µL/min/mg.

In the case of `CCS(=O)(=O)N[C@@H]1[C@H](Cc2cccc(-c3cccc(F)c3)c2F)N(C(=O)C(C)C)CC1(F)F` [Example 94, N-[(2S,3R)-2-[(2,3′-difluoro[1,1′-biphenyl]-3-yl)methyl]-4,4-difluoro-1-(2-methylpropanoyl)pyrrolidin-3-yl]ethanesulfonamide], the “OX2R agonist activity (3 μM, %)” value in data set [1] worked out at 99%. In the data set with cynomolgus monkeys, the response vs control in vivo at 3 mg/kg was 442%. In data set [2], the microsomal CLint at 1 μmol/L came to 44 µL/min/mg.

On to `CCS(=O)(=O)N[C@@H]1[C@H](Cc2cccc(-c3cc(F)cc(F)c3)c2F)N(C(=O)C2CC2)CC1(F)F` [Example 144, N-{(2S,3R)-1-(cyclopropanecarbonyl)-4,4-difluoro-2-[(2,3′,5′-trifluoro[1,1′-biphenyl]-3-yl)methyl]pyrrolidin-3-yl}ethanesulfonamide], for which the “OX2R agonist activity (3 μM, %)” value in data set [1] came to 88%. For the same compound, the response vs control in vivo at 3 mg/kg in the data set with cynomolgus monkeys was 649%. The microsomal CLint at 1 μmol/L in data set [2] came to 13 µL/min/mg.

As to `CCS(=O)(=O)N[C@@H]1[C@H](Cc2cccc(-c3cc(F)cc(F)c3)c2F)N(C(=O)C(C)C)CC1(F)F` [Example 146, N-{(2S,3R)-4,4-difluoro-1-(2-methylpropanoyl)-2-[(2,3′,5′-trifluoro[1,1′-biphenyl]-3-yl)methyl]pyrrolidin-3-yl}ethanesulfonamide], the “OX2R agonist activity (3 μM, %)” value in data set [1] worked out at 92%. Further, in the data set with cynomolgus monkeys, the response vs control in vivo at 3 mg/kg came out at 426%. This compound returned a microsomal CLint at 1 μmol/L in data set [2] of 83 µL/min/mg.

For `CCS(=O)(=O)N[C@@H]1[C@H](Cc2cccc(-c3cccc(F)c3)c2F)N(C(=O)[C@H]2C[C@H](F)C2)CC1(F)F` [Example 225, N-[(2S,3R)-2-[(2,3′-difluoro[1,1′-biphenyl]-3-yl)methyl]-4,4-difluoro-1-((1r,3S)-3-fluorocyclobutane-1-carbonyl)pyrrolidin-3-yl]ethanesulfonamide], in data set [1], the “OX2R agonist activity (3 μM, %)” value came out at 96%. Moreover, in the data set with cynomolgus monkeys, the response vs control in vivo at 3 mg/kg turned out to be 318%. The microsomal CLint at 1 μmol/L in data set [2] came to 60 µL/min/mg.

For the compound `CCS(=O)(=O)N[C@H]1[C@@H](F)CN(C(=O)C2CC2)[C@H]1Cc1cccc(-c2cc(F)cc(F)c2)c1F` [Example 236, N-{(2S,3R,4S)-1-(cyclopropanecarbonyl)-4-fluoro-2-[(2,3′,5′-trifluoro[1,1′-biphenyl]-3-yl)methyl]pyrrolidin-3-yl}ethanesulfonamide], in data set [1], the “OX2R agonist activity (3 μM, %)” value is 100%. Besides, the response vs control in vivo at 10 mg/kg with cynomolgus monkeys was 716%. Further, the microsomal CLint at 1 μmol/L in data set [2] was 67 µL/min/mg.

Regarding `CCS(=O)(=O)N[C@H]1[C@@H](F)CN(C(=O)[C@H]2CCO2)[C@H]1Cc1cccc(-c2ccccc2)c1F` [Example 302, N-[(2S,3R,4S)-4-fluoro-2-[(2-fluoro[1,1′-biphenyl]-3-yl)methyl]-1-((2R)-oxetane-2-carbonyl)pyrrolidin-3-yl]ethanesulfonamide], the “OX2R agonist activity (3 μM, %)” value in data set [1] was found to be 85%. In the data set on cynomolgus monkeys, the response vs control in vivo at 10 mg/kg was determined as 288%. In addition, the microsomal CLint at 1 μmol/L in data set [2] came out at 3 µL/min/mg.

For the compound `CCS(=O)(=O)N[C@@H]1[C@H](Cc2cccc(-c3cc(F)cc(F)c3)c2F)N(C(=O)[C@H]2C[C@H](F)C2)CC1(F)F` [Example 375, N-{(2S,3R)-4,4-difluoro-1-((1r,3S)-3-fluorocyclobutane-1-carbonyl)-2-[(2,3′,5′-trifluoro[1,1′-biphenyl]-3-yl)methyl]pyrrolidin-3-yl}ethanesulfonamide], the “OX2R agonist activity (3 μM, %)” value in data set [1] worked out at 91%. Further, the response vs control in vivo at 3 mg/kg with cynomolgus monkeys came to 396%. The microsomal CLint at 1 μmol/L in data set [2] was 35 µL/min/mg.

With `CCS(=O)(=O)N[C@@H]1[C@H](Cc2cccc(-c3cc(F)cc(F)c3)c2F)N(C(=O)[C@H]2C[C@@H](F)C2)CC1(F)F` [Example 380, N-{(2S,3R)-4,4-difluoro-1-((1s,3R)-3-fluorocyclobutane-1-carbonyl)-2-[(2,3′,5′-trifluoro[1,1′-biphenyl]-3-yl)methyl]pyrrolidin-3-yl}ethanesulfonamide], the “OX2R agonist activity (3 μM, %)” value in data set [1] came out at 93%. Also, the response vs control in vivo at 3 mg/kg with cynomolgus monkeys was determined as 484%. For the same compound, the microsomal CLint at 1 μmol/L in data set [2] came out at 39 µL/min/mg.

Turning to `CS(=O)(=O)N[C@@H]1[C@H](Cc2cccc(-c3cc(F)cc(F)c3)c2F)N(C(=O)[C@H]2C[C@@H](F)C2)CC1(F)F` [Example 433, N-{(2S,3R)-4,4-difluoro-1-(3-fluorocyclobutane-1-carbonyl)-2-[(2,3′,5′-trifluoro[1,1′-biphenyl]-3-yl)methyl]pyrrolidin-3-yl}methanesulfonamide], the “OX2R agonist activity (3 μM, %)” value in data set [1] is 101%. The response vs control in vivo at 3 mg/kg in the data set on cynomolgus monkeys amounted to 727%. Besides, the microsomal CLint at 1 μmol/L in data set [2] was found to be 16 µL/min/mg.
